Experimental findings from patent US8003572B2 (priority 2004, dated 2011) are described below.

Data set [1] deals with C85 colorectal adenocarcinoma cells. Kind of data set: Clonogenic assay with C85 colorectal adenocarcinoma cells. Format: cell-based, human. As to the method: Compounds identified by structure based screening were assayed in a clonogenic assay with C85 colorectal adenocarcinoma cells. Briefly, C85 cells were plated at 200 cells per well in six well plates. Seventy-two hours after plating, compounds 05RB, 0BWP, 0FZK, 0RZL, HBS01, 01LX, 0464, 1BJO AND 27NT were added at various concentrations (See Table 1). Colonies were counted 96 hours after treatment and IC50 concentrations determined (Table 1).

Another data set concerns MCF-7. Kind of data set: MTS cell proliferation assay in MCF-7. Format: cell-based. The settings on record: Homo sapiens, MCF7. As to the method:
(§1) In order to determine the IC50 values of HBS01 an MTS assay was performed on MCF-7 and MCF-7/ADR (adramycin resistance) cell lines. Cells were plated in a 96 well plate at 5,000 cells/well. After plating, cells were treated for 96 hours with either HBS01, methotrexate (MTX), doxyrubicin (DOX), or 5-Fluorouracil (5FU) and an MTS assay was performed according to manufacturer's protocol with the CELL TITER 96 AQ non-radioactive cell proliferation assay kit (Promega, Cat. No. G5421). Viable cells were quantitated based on absorbance at 490 nm. […] Thus, HBS01 was an extremely potent inhibitor of MCF-7 and MCF-7Adr proliferation.
For orientation: Tetrazolium dyes change colour on reduction, which living cells bring about.

The subject of data set [2] is MCF-7/ADR (adramycin resistance) cell line. Kind of data set: MTS cell proliferation assay in MCF-7/ADR. As to conditions: Homo sapiens, NCI/ADR-RES. Format: cell-based. How it is done: as §1
The subject of data set [3] is C85 human colorectal cancer cells. Kind of data set: C85 colorectal tumors in nude mice. The data set is classed as in vivo. How it is done: (§2) C85 human colorectal cancer cell growth was assessed in nude mice (NIH, Cr:(MCr)-Fox1nu(nu/nu homogygous), Taconic Inc., Germantown, N.Y.) treated or pretreated with HBS01 over a 19 day period. Briefly, pretreated animals were administered three daily doses of HBS01 at 17 mg/Kg given on day −3, −2, and −1 prior to tumor cell injection on day 0. No further treatment was given to the pretreated animals. Nude mice were injected in the flanks with 1 million C85 human colorectal cancer cells. Treated animals were treated with daily injections of HBS01 at 17 mg/kg per at days 10, 11, 12, 15, 16 and 17 following appearance of palpable tumors on day 10.
Tumor diameters were measured with calipers every alternate day and tumor volumes were calculated by ½ab^2 where a is the larger diameter (Friedman, H S., et al. Cancer Res. 46, 2827-2833). The results are shown in FIG. 3 as tumor volume in cm^3.

Data set [4] has as its system MCF-7 breast cancer cells. Kind of data set: MCF-7 breast cancer tumors in nude mice. The data set is classed as in vivo. As to the method: as §2, with “MCF-7 breast” for “C85 human colorectal”, “31 days.” for “a 19 day period.”, “200,000 MCF-7 breast” for “1 million C85 human colorectal”, “10. Tumor diameters were measured with calipers every alternate day and tumor volumes were calculated by ½ab^2 where a is the larger diameter (Friedman, H S., et al. Cancer Res. 46, 2827-2833). The results are shown in FIG. 4 as tumor volume in cm^3.” for “10.”

The subject of another data set is EGFP marked C85 cells. Kind of data set: Metastatic growth of EGFP marked C85 cells in nude mice. Format: in vivo. As to conditions: pre-treated 14.5 mg/kg every 24 hrs for five days; ten days post-C85 tail vein injection. As to the method: The effect of HBS01 on the metastatic growth of enhanced green fluorescent protein (EGFP) marked C85 cells was assayed in nude mice (NIH, Cr:(MCr)-Fox1nu(nu/nu homogygous), Taconic Inc., Germantown, N.Y.). Briefly, nude mice were pre-treated with 14.5 mg/kg of HBS01 every 24 hrs for five days. At the completion of pre-treatment the pre-treated or control non-treated mice were injected in the tail vein with 1×10^6 EGFP marked C85 cells. Ten days post-C85 injection, the mice were dissected and tumor size assessed based on intravital fluorescence imaging and liver biopsies.

For data set [5], the system named is protein ubiquination pathways. Kind of data set: Protein ubiquination in C85 cell lysates (HA-tagged ubiquitin Western blot). Format: cell-based. As to conditions: C85 cells treated for 24 or 48 hrs. How it is done:
Briefly, C85 cells were plated at 200 cells per well in six well plates.
Cells were either untreated (controls) or treated for 24 or 48 hrs with HBS01. After the treatment period, cells were harvested and extracts were prepared from the cells by freeze fracturing in liquid nitrogen in breakage buffer (50 mM Tris pH 7.5, 1 mM DTT, “Complete” protease inhibitor cocktail (Roche, Cat.# 1697498), 10 μM MG132). Roughly […] of total protein extracts in 300 μl of breakage buffer was supplemented with 20 μg of PHH-Ub (HA and His6 tagged Ubiquitin) and incubated at 30° C. for 60 min. 3×SDS-PAGE sample buffer was added to 40 μl of this reaction and boiled for 3 min. The extracts were run on 12% Laemmli gels that were either stained with Coomassie Blue R-250 or blotted with HRP conjugated 12CA5 monoclonal antibody (Roche, Inc., Indianapolis, Ind.) and visualized by ECL, with the ECL plus western blot detection kit (Amersham Biosciences, Piscataway, N.J.) according to manufacturers instructions.
(In general: In western blotting, separated proteins are transferred to a membrane and probed.)

For the next data set, the system named is cyclin-B. Kind of data set: Ubiquination of cyclin-B in C85 cell lysates (Western blot). As to conditions: C85 cells treated for 24 hrs. Format: cell-based. How it is done:
The ability of HBS01 to inhibit protein ubiquination of cyclin-B was assayed in C85 cell lines. Briefly, C85 cells were plated at 200 cells per well in six well plates. Cells were either untreated (controls) or treated for 24 hrs with HBS01. After the treatment period, cells were harvested and extracts were prepared from the cells by freeze fracturing in liquid nitrogen in breakage buffer (50 mM Tris pH 7.5, 1 mM DTT, “Complete” protease inhibitor cocktail (Roche, Cat.# 1697498), 10 μM MG132). Roughly […] of total protein extracts in 300 μl of breakage buffer was supplemented with 20 μg of PHH-Ub (HA and His6 tagged Ubiquitin) and incubated at 30° C. for 60 min. 3×SDS-PAGE sample buffer was added to 40 μl of this reaction and boiled for 3 min. The extracts were run on 12% Laemmli gels and Western Blots were performed with anti-cyclin-B antibody (Santa Cruz Biotechnology, Inc., Santa Cruz, Calif.). Results were visualized by ECL, with the ECL plus western blot detection kit (Amersham Biosciences, Piscataway, N.J.) according to manufacturers instructions.

Data set [6] can be described thus: Maximum tolerated dose in mice. The settings on record: nude, mouse, in vivo.
Where [7] appears, read: Homo sapiens, C85 cells, colonies counted 96 hours after treatment.
Where [8] appears, read: pretreated animals, 17 mg/Kg on day -3, -2 and -1 prior to tumor cell injection.

On to `NC(=O)c1ccc([N+](=O)[O-])cc1Cl` [Compound 0BWP, 2-Chloro-4-nitrobenzamide], for which, in data set [1] (setting [7]), the midpoint of inhibition, the IC50, lay at 600000 nM.
The same measure, in the same setting: the same measure for `Oc1cc(Cl)cnc1O` [Compound 0FZK, 5-chloro-2,3-dihydroxypyridine]: 175000 nM; for `Nc1ccc2cn[nH]c2c1` [Compound 0464, 6-AMINOINDAZOLE]: 70000 nM; for `CC1CN(c2ccccc2)NC1=O` (centres unmarked) [Compound 0RZL, 1-Phenyl-4-methyl-3-pyrazolidone]: 50000 nM.
Consider `Nc1ccc(Nc2ccccc2)cc1` [Compound 05RB, N-Phenyl-4-phenylenediamine], for which inhibition in [1] (C85 cells, colonies counted 96 hours after treatment) was half-maximal at 37500 nM (IC50).
Turning to `NCC1CCNCC1` [HBS01, 4-(Aminomethyl)piperidine], the IC50 (in general, the midpoint of a concentration-inhibition curve) in data set [1] (Homo sapiens, C85 cells, colonies counted 96 hours after treatment, * denotes nM) worked out at 30 nM; in [1] (human colon cancer cell line C85), 30 nM; in the data set on MCF-7 (MCF-7, treated for 96 hours, MTS) it was 0.03 µM; with MCF-7 (breast cancer cell line MCF-7) it was 0.03 µM; in data set [2] (MCF-7Adr, treated for 96 hours, MTS), 0.03 µM; in [2] (breast cancer cell line MCF-7Adr), 0.03 µM. For the same compound, the “tumor growth (tumor volume)” value in [3] (setting [8]) is given as “delayed tumor growth”; in [4] (treated animals, 17 mg/kg daily at days 10, 11, 12, 15, 16 and 17) it was “significantly inhibited tumor growth”. Besides, in data set [3] (treated animals, 17 mg/kg daily at days 10, 11, 12, 15, 16 and 17, 17 mg/kg), the “growth of established tumors (tumor volume)” value is “significantly inhibited the growth of established tumors”. For the same compound, the “onset of tumors (tumor volume)” value in [4] (setting [8]) was “delayed the onset of MCF-7 tumors”. In the data set with EGFP marked C85 cells, the metastatic tumors result is on record as “metastatic tumors were not detectable”. For the same compound, the “general ubiquitin conjugation (ubiquitin intensities and banding patterns)” value in data set [5] was “general inactivation of the ubiquitin conjugation pathways did not occur”. For the same compound, the “ubiquination of cyclin-B” value with cyclin-B is on record as “selectively inhibited the ubiquination of cyclin-B”. The MTD – broadly, the highest dose tested that stayed within the study's limit of toxicity – in data set [6] came to 1400 mg/kg.
`CC(=O)Nc1ccccc1O` [Compound 01LX, 2-Acetamidophenol] returned an IC50 in [1] (setting [7]) of 375000 nM.
